Where a SMILES comes first, the peptide text is derived from it.
Assays:
HLA-A02.01 [1] = molecular target: HLA-A02.01 (Homo sapiens, UniProt P04439, D140Y/D185E/D98H/E176V/E277Q/G131W/G231S/I119V/I121R/I166T/I218V/L300P/L318F/N151K/N90K/P208A/P217A/Q86G/Q94H/R138H/R169H/T345S); test: Class I MHC peptide binding affinity (displacement of radiolabeled reference peptide); conditions: for IC50: allele A02.01, read-out: Observed Affinity (IC50, (nM)); for Kd: EGFR T790M peptides, HLA allele A02.01, read-out: Affinity
How it was run: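 Radiolabeled reference peptide/MHCI complexes; test peptide titration, 2 d incubation; bound label remaining read by size-exclusion gel filtration.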

HLA-A24.02 = test: as above; set-up: species or system human; conditions: allele A24.02; read-out: Observed Affinity (IC50; (nM))
HLA-A02.01 [2] = molecular target: T1, HLA-A02.01 (Homo sapiens, UniProt P04439, D140Y/D185E/D98H/E176V/E277Q/G131W/G231S/I119V/I121R/I166T/I218V/N151K/N90K/P208A/P217A/Q86G/Q94H/R138H/R169H); test: Class I MHC peptide binding stability (pMHC-I dissociation, 125I-labeled light chain); conditions: for Stability (T1/2 (h)): allele A02.01
T1 construct: made in house; host or cells: E. coli

HLA-A03.01 = HLA-A03.01 (Homo sapiens, UniProt P04439); test: Class I MHC peptide binding affinity (displacement of radiolabeled reference peptide); conditions: allele A03.01; read-out: Observed Affinity (IC50; (nM))

Work on `CC[C@H](C)[C@H](NC(=O)[C@H](Cc1ccc(O)cc1)NC(=O)[C@H](CC(C)C)NC(=O)[C@@H](N)CC(C)C)C(=O)N[C@H](C(=O)N[C@@H](C)C(=O)N[C@@H](Cc1ccccc1)C(=O)N[C@@H](Cc1ccccc1)C(=O)N[C@@H](CC(C)C)C(=O)N[C@@H](CC(C)C)C(=O)O)[C@@H](C)O` (H-LLYITAFFLL-OH; N-terminus and C-terminus assumed) yielded an IC50 (HLA-A02.01 [1]) of 323 nM and an IC50 (HLA-A24.02) of 60.1 nM.

With `CSCC[C@H](NC(=O)[C@H](CCC(=O)O)NC(=O)[C@H](CC(C)C)NC(=O)[C@H](CC(C)C)NC(=O)[C@H](CC(C)C)NC(=O)CNC(=O)[C@H](Cc1ccc(O)cc1)NC(=O)[C@@H](N)CC(C)C)C(=O)N[C@@H](CC(C)C)C(=O)O` (H-LYGLLLEML-OH; N-terminus and C-terminus assumed) the IC50 (HLA-A24.02) was 0.8 nM.

With `CC[C@H](C)[C@H](NC(=O)[C@H](CC(C)C)NC(=O)[C@H](CCC(N)=O)NC(=O)[C@@H](N)C(C)C)C(=O)N[C@@H](CCSC)C(=O)N[C@@H](CCC(N)=O)C(=O)N[C@@H](CC(C)C)C(=O)N[C@@H](CCSC)C(=O)N1CCC[C@H]1C(=O)N[C@@H](Cc1ccccc1)C(=O)O` the Kd (HLA-A02.01 [1]) was 4940 nM, the IC50 (HLA-A02.01 [1]) was 5490 nM and the IC50 (HLA-A24.02) was 4560 nM.

Work on `CC[C@H](C)[C@H](N)C(=O)N[C@@H](CCSC)C(=O)N[C@@H](CCC(N)=O)C(=O)N[C@@H](CC(C)C)C(=O)N[C@@H](CCSC)C(=O)N1CCC[C@H]1C(=O)N[C@@H](Cc1ccccc1)C(=O)NCC(=O)N[C@@H](CS)C(=O)N[C@@H](CC(C)C)C(=O)O` yielded a Kd (HLA-A02.01 [1]) of 653 nM, an IC50 (HLA-A02.01 [1]) of 837 nM and an IC50 (HLA-A24.02) of 18100 nM. The “Stability (half-life (hr.))” value (HLA-A02.01 [2]; EGFR T790M peptides, HLA allele A02.01) was 0.5156 h and the “Stability (T1/2 (h))” value (HLA-A02.01 [2]) was 0.5 h.

In the case of `CC(C)C[C@H](NC(=O)[C@H](Cc1ccccc1)NC(=O)[C@H](CO)NC(=O)[C@H](CC(C)C)NC(=O)[C@H](CS)NC(=O)[C@H](CO)NC(=O)[C@H](Cc1ccccc1)NC(=O)[C@H](CC(C)C)NC(=O)[C@@H](N)CCCCN)C(=O)N[C@@H](CO)C(=O)O` (H-KLFSCLSFLS-OH; N-terminus and C-terminus assumed), the IC50 (HLA-A02.01 [1]) is reported as 0.6 nM and the IC50 (HLA-A03.01) is reported as 104 nM.

Work on `CC[C@H](C)[C@H](NC(=O)[C@H](Cc1ccc(O)cc1)NC(=O)[C@@H](N)CC(C)C)C(=O)N[C@H](C(=O)N[C@@H](C)C(=O)N[C@@H](Cc1ccccc1)C(=O)N[C@@H](Cc1ccccc1)C(=O)N[C@@H](CC(C)C)C(=O)N[C@@H](CC(C)C)C(=O)O)[C@@H](C)O` (H-LYITAFFLL-OH; N-terminus and C-terminus assumed) yielded an IC50 (HLA-A24.02) of 0.1 nM.

Compound `CC[C@H](C)[C@H](NC(=O)[C@H](CCCCN)NC(=O)[C@H](CO)NC(=O)[C@H](CCC(=O)O)NC(=O)[C@H](C)NC(=O)[C@H](CCCCN)NC(=O)[C@H](CC(C)C)NC(=O)[C@H](Cc1ccccc1)NC(=O)[C@@H](N)CCSC)C(=O)O` (H-MFLKAESKI-OH; N-terminus and C-terminus assumed) has an IC50 (HLA-A24.02) of 332 nM.

Compound `CSCC[C@H](NC(=O)[C@H](CCCNC(=N)N)NC(=O)[C@@H](N)CCCNC(=N)N)C(=O)N1CCC[C@H]1C(=O)N1CCC[C@H]1C(=O)N[C@@H](CS)C(=O)N[C@@H](CC(C)C)C(=O)N[C@@H](C)C(=O)N[C@@H](CC(N)=O)C(=O)N[C@@H](Cc1ccccc1)C(=O)O` (H-RRMPPCLANF-OH; N-terminus and C-terminus assumed) has an IC50 (HLA-A24.02) of 141 nM.

`CSCC[C@H](NC(=O)[C@@H](N)C(C)C)C(=O)N[C@@H](C)C(=O)NCC(=O)N[C@@H](CC(C)C)C(=O)NCC(=O)N[C@@H](CO)C(=O)N1CCC[C@H]1C(=O)N[C@@H](Cc1ccc(O)cc1)C(=O)N[C@H](C(=O)O)C(C)C` (H-VMAGLGSPYV-OH; N-terminus and C-terminus assumed) was tested, and the IC50 (HLA-A02.01 [1]) was 102 nM, the IC50 (HLA-A03.01) was 11200 nM and the “Stability (T1/2 (h))” value (HLA-A02.01 [2]) was 2.9 h.

`CC[C@H](C)[C@H](NC(=O)[C@@H](NC(=O)[C@H](CC(C)C)NC(=O)[C@@H](NC(=O)[C@@H]1CCCN1C(=O)[C@H](CCCNC(=N)N)NC(=O)[C@H](CCCNC(=N)N)NC(=O)[C@H](CC(N)=O)NC(=O)[C@H](CCSC)NC(=O)[C@@H](N)CO)[C@@H](C)CC)[C@@H](C)O)C(=O)O` was tested, and the IC50 (HLA-A02.01 [1]) was 1200 nM, the IC50 (HLA-A24.02) was 16300 nM and the “Stability (T1/2 (h))” value (HLA-A02.01 [2]) was 0.3 h.

In the case of `CC[C@H](C)[C@H](NC(=O)[C@H](Cc1ccc(O)cc1)NC(=O)[C@@H](N)CC(C)C)C(=O)N[C@H](C(=O)N[C@@H](C)C(=O)N[C@@H](Cc1ccccc1)C(=O)N[C@@H](Cc1ccccc1)C(=O)N[C@@H](CC(C)C)C(=O)N[C@@H](CC(C)C)C(=O)N[C@@H](CC(=O)O)C(=O)O)[C@@H](C)O` (H-LYITAFFLLD-OH; N-terminus and C-terminus assumed), the IC50 (HLA-A24.02) is reported as 0.4 nM.

For `CC[C@H](C)[C@H](NC(=O)[C@@H](NC(=O)[C@@H](NC(=O)[C@H](CC(C)C)NC(=O)[C@@H](NC(=O)[C@@H]1CCCN1C(=O)[C@H](CCCNC(=N)N)NC(=O)[C@H](Cc1c[nH]c2ccccc12)NC(=O)[C@H](CC(N)=O)NC(=O)[C@@H](N)CCSC)[C@@H](C)CC)[C@@H](C)O)[C@@H](C)CC)C(=O)O` (H-MNWRPILTII-OH; N-terminus and C-terminus assumed), the IC50 (HLA-A02.01 [1]) was 1030 nM, the IC50 (HLA-A24.02) was 44900 nM and the “Stability (T1/2 (h))” value (HLA-A02.01 [2]) was 0.4 h.

With `CC[C@H](C)[C@H](NC(=O)[C@H](Cc1ccc(O)cc1)NC(=O)[C@@H](N)CC(C)C)C(=O)N[C@H](C(=O)N[C@@H](C)C(=O)N[C@@H](Cc1ccccc1)C(=O)N[C@@H](Cc1ccccc1)C(=O)N[C@@H](Cc1ccccc1)C(=O)N[C@@H](CS)C(=O)N[C@@H](Cc1c[nH]c2ccccc12)C(=O)O)[C@@H](C)O` (H-LYITAFFFCW-OH; N-terminus and C-terminus assumed) the IC50 (HLA-A24.02) was 45.3 nM.

In the case of `CC(C)C[C@H](NC(=O)[C@@H](N)CCCNC(=N)N)C(=O)N[C@@H](CO)C(=O)N[C@@H](CO)C(=O)N[C@@H](CS)C(=O)N[C@H](C(=O)N1CCC[C@H]1C(=O)N[C@H](C(=O)N[C@@H](C)C(=O)O)C(C)C)C(C)C`, the IC50 (HLA-A03.01) is reported as 439 nM and the “Stability (T1/2 (h))” value (HLA-A02.01 [2]) is reported as 18.7 h.

For `CC(C)C[C@H](NC(=O)[C@@H](NC(=O)[C@H](CO)NC(=O)[C@H](CO)NC(=O)[C@H](CC(C)C)NC(=O)[C@@H](N)CCCNC(=N)N)C(C)C)C(=O)N[C@@H](CCC(N)=O)C(=O)N[C@@H](CCCNC(=N)N)C(=O)N[C@@H](Cc1ccccc1)C(=O)O` (H-RLSSVLQRF-OH; N-terminus and C-terminus assumed), the IC50 (HLA-A24.02) was 28.2 nM.

In the case of `CC[C@H](C)[C@H](NC(=O)[C@H](Cc1c[nH]c2ccccc12)NC(=O)[C@H](CC(C)C)NC(=O)[C@@H]1CCCN1C(=O)[C@H](CO)NC(=O)[C@H](CCCNC(=N)N)NC(=O)[C@H](CC(C)C)NC(=O)[C@@H](N)CCCCN)C(=O)N[C@@H](Cc1ccccc1)C(=O)O` (H-KLRSPLWIF-OH; N-terminus and C-terminus assumed), the IC50 (HLA-A24.02) is reported as 828 nM.

With `CC[C@H](C)[C@H](NC(=O)[C@H](CC(=O)O)NC(=O)[C@H](Cc1ccccc1)NC(=O)[C@H](CC(C)C)NC(=O)[C@@H](NC(=O)[C@H](CCC(=O)O)NC(=O)[C@@H](NC(=O)[C@H](CCSC)NC(=O)[C@@H](N)Cc1c[nH]c2ccccc12)[C@@H](C)O)[C@@H](C)O)C(=O)O` (H-WMTETLFDI-OH; N-terminus and C-terminus assumed) the IC50 (HLA-A02.01 [1]) was 14 nM, the IC50 (HLA-A24.02) was 713 nM and the “Stability (T1/2 (h))” value (HLA-A02.01 [2]) was 4 h.

Compound `CC(C)C[C@H](NC(=O)[C@H](CS)NC(=O)[C@H](CO)NC(=O)[C@H](Cc1ccccc1)NC(=O)[C@H](CC(C)C)NC(=O)[C@H](CCCCN)NC(=O)[C@H](Cc1ccccc1)NC(=O)CN)C(=O)N[C@@H](CO)C(=O)N[C@@H](Cc1ccccc1)C(=O)O` (H-GFKLFSCLSF-OH; N-terminus and C-terminus assumed) has an IC50 (HLA-A24.02) of 643 nM.

Compound `CC[C@H](C)[C@H](NC(=O)[C@H](Cc1ccc(O)cc1)NC(=O)[C@H](CS)NC(=O)[C@H](Cc1ccccc1)NC(=O)[C@@H](N)Cc1ccccc1)C(=O)N[C@@H](CC(C)C)C(=O)N[C@@H](CC(N)=O)C(=O)N[C@H](C(=O)N[C@@H](CCSC)C(=O)N[C@@H](Cc1ccccc1)C(=O)O)[C@@H](C)O` (H-FFCYILNTMF-OH; N-terminus and C-terminus assumed) has an IC50 (HLA-A24.02) of 73.4 nM.

For `CC[C@H](C)[C@H](NC(=O)[C@H](Cc1ccc(O)cc1)NC(=O)[C@H](CC(C)C)NC(=O)[C@H](CO)NC(=O)[C@H](CC(N)=O)NC(=O)[C@H](CS)NC(=O)[C@H](CCC(=O)O)NC(=O)[C@H](Cc1c[nH]cn1)NC(=O)[C@H](CC(C)C)NC(=O)[C@@H](N)C(C)C)C(=O)O` (H-VLHECNSLYI-OH; N-terminus and C-terminus assumed), the IC50 (HLA-A02.01 [1]) was 10 nM, the IC50 (HLA-A03.01) was 10500 nM and the “Stability (T1/2 (h))” value (HLA-A02.01 [2]) was 5.1 h.

`CC(C)C[C@H](NC(=O)[C@H](CC(C)C)NC(=O)[C@H](CCC(=O)O)NC(=O)[C@@H]1CCCN1C(=O)[C@H](Cc1ccccc1)NC(=O)[C@@H](N)CCCCN)C(=O)N[C@@H](CS)C(=O)N[C@H](C(=O)N[C@@H](Cc1c[nH]c2ccccc12)C(=O)O)C(C)C` (H-KFPELLCVW-OH; N-terminus and C-terminus assumed) was tested, and the IC50 (HLA-A24.02) was 13.7 nM.

In the case of `CC[C@H](C)[C@H](NC(=O)[C@@H]1CCCN1C(=O)[C@H](Cc1ccccc1)NC(=O)[C@H](Cc1ccccc1)NC(=O)[C@H](CCCNC(=N)N)NC(=O)[C@H](C)NC(=O)[C@H](CC(C)C)NC(=O)[C@H](CCC(N)=O)NC(=O)[C@@H](N)[C@@H](C)O)C(=O)O`, the IC50 (HLA-A02.01 [1]) is reported as 19 nM and the IC50 (HLA-A24.02) is reported as 52 nM.

Work on `CSCC[C@H](NC(=O)[C@@H](N)CCCNC(=N)N)C(=O)N1CCC[C@H]1C(=O)N1CCC[C@H]1C(=O)N[C@@H](CS)C(=O)N[C@@H](CC(C)C)C(=O)N[C@@H](C)C(=O)N[C@@H](CC(N)=O)C(=O)N[C@@H](Cc1ccccc1)C(=O)O` (H-RMPPCLANF-OH; N-terminus and C-terminus assumed) yielded an IC50 (HLA-A24.02) of 8.7 nM.

Reference: US20220282217A1, “COMPOSITIONS AND METHODS FOR PREPARING T CELL COMPOSITIONS AND USES THEREOF” (priority 2019, published 2022)
